What was measured:
Brain [1] = test: In vivo binding affinity to amyloid beta 42 in mouse brain by neuropathological staining; type: ADME, organism-based
[2] = Displacement of [125I]IMPY from amyloid beta42 by gamma counting
Brain [3] = test: In vivo binding affinity to amyloid beta 42 in Tg2576 mouse brain by neuropathological staining; type: ADME, organism-based

Row | SMILES | Activity (Brain [1]) | Ki [2] [nM] | Activity (Brain [3])
1 | Oc1ccc(-c2cc3cc(I)ccc3[nH]2)cc1 |  | 32.9 | 
2 | OCCOc1ccc(-c2cc3cc(I)ccc3[nH]2)cc1 |  | 25.9 | 
3 | CN(C)c1ccc(-n2ccc3cc(I)ccc32)cc1 |  | > 10000 | 

Now those with a lower Ki [2], led by results:

Row | Activity (Brain [1]) | Ki [2] [nM] | Activity (Brain [3]) | SMILES
4 |  | 20.2 | Active | COc1ccc(-c2cc3cc(I)ccc3[nH]2)cc1
5 | Not Active | 4.24 |  | CN(C)c1ccc(-c2cc3cc(I)ccc3[nH]2)cc1

From ChEMBL document CHEMBL1177647, “Synthesis and characterization of novel phenylindoles as potential probes for imaging of β-amyloid plaques in the brain” (Bioorg Med Chem, 2010)
